Values quoted from earlier work, collected in patent US20230357519A1, “REMOVAL OF ODORANTS FROM POST-CONSUMER POLYOLEFIN WASTE” (Borealis AG, priority 2020, published 2023).

Settings: octanol/water; not determined experimentally, generally accepted literature values

Compound	log Poctanol/water
CC(O)C(C)O (centres unmarked) [2,3-Butanediol]	−0.92^1
C=Cc1ccccc1 [Styrene]	3.05^2
C=C(C)[C@H]1CC=C(C)CC1 [D-Limonene]	4.57^4
CCCCC(CCCC)CC(C)C [5-(2-Methylpropyl)-nonane]	5.03^5

Further lines, results first:

log Poctanol/water	Compound
0.84^2	CCCC(C)=O [2-Pentanone]
2.73^3	CCCCC(CC)CO (centres unmarked) [2-Ethyl-1-hexanol]
6.09^6	CCCCC(C)CCCC(C)C (centres unmarked) [2,6-Dimethyl decane]
3.16^2	CCCCCCCC(C)=O [2-Nonanone]
